# Source: PubChem BioAssay (NCI)
#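 A five-concentration, 48-hour dose response in 96-well plates underlies each endpoint, interpolated linearly between surrounding concentrations. At the GI50, growth is halved. TGI is the concentration that stops growth completely.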
# Key:
# Experiment in all cases: NCI tumour cell line growth inhibition, 48 h
# KM12 colon = system: KM12 colon
# UACC-62 melanoma = system: UACC-62 melanoma
# HOP-62 NSCLC = system: HOP-62 NSCLC
# NCI-H23 lung = system: NCI-H23 lung
# SK-MEL-2 melanoma = system: SK-MEL-2 melanoma
# M14 melanoma = system: M14 melanoma
# HT29 colon = system: HT29 colon
Compound,TGI (KM12 colon),TGI (UACC-62 melanoma),TGI (HOP-62 NSCLC),TGI (NCI-H23 lung),TGI (SK-MEL-2 melanoma),TGI (M14 melanoma),TGI (HT29 colon),GI50 (KM12 colon),GI50 (UACC-62 melanoma),GI50 (HOP-62 NSCLC),GI50 (NCI-H23 lung),GI50 (SK-MEL-2 melanoma),GI50 (M14 melanoma),GI50 (HT29 colon)
CCN(CC)C(=S)N/N=C(\C)c1ccccc1O,> 100 µM,> 100 µM,> 100 µM,> 100 µM,80.7 µM,51.3 µM,48 µM,–,–,–,–,–,–,–
COc1cc2c(cc1OC)[C@@H](C(O)c1ccccc1)NCC2 (some centres undefined),> 100 µM,> 100 µM,> 100 µM,> 100 µM,> 100 µM,> 100 µM,> 100 µM,–,–,–,–,–,–,–
O=Cc1[nH]c2ccccc2c1Br,50 µM,33.7 µM,40.6 µM,87.8 µM,31.2 µM,46.3 µM,58.6 µM,–,–,–,–,–,–,–
CCCCC(=O)[O-].N.N.N.N.N.[Co+3].[O-][Cl+3]([O-])([O-])[O-],> 100 µM,> 100 µM,> 100 µM,> 100 µM,> 100 µM,> 100 µM,> 100 µM,> 100 µM,> 100 µM,> 100 µM,> 100 µM,> 100 µM,> 100 µM,> 100 µM
CC(=O)OC[C@@H]1[C@H]2CC(=O)O[C@H]2C[C@H]1OC(C)=O,> 100 µM,> 100 µM,> 100 µM,–,–,> 100 µM,> 100 µM,–,–,–,–,–,–,–
CC(C)(C)C(=O)C(c1ccc(-c2cscn2)cc1)c1ccc(-c2cscn2)cc1,> 100 µM,> 71.4 µM,40.6 µM,> 100 µM,68.5 µM,> 100 µM,> 100 µM,–,–,–,–,–,–,–
CC(=S)NNC(=O)c1ccncc1,> 100 µM,> 100 µM,> 100 µM,> 100 µM,> 100 µM,> 100 µM,> 100 µM,–,–,–,–,–,–,–
CN(C)c1ccc(/C=C2\N=C(c3ccc(N)cc3)OC2=O)cc1,> 100 µM,> 100 µM,> 100 µM,> 100 µM,> 100 µM,> 100 µM,> 100 µM,–,–,–,–,–,–,–
COc1ccc(C=NC23CC4CC(CC(C4)C2)C3)cc1,> 100 µM,> 100 µM,> 100 µM,> 100 µM,> 100 µM,> 100 µM,> 100 µM,–,–,–,–,–,–,–
CCOC(=O)NC(=O)c1cn(CCCOC(=O)CCCCCCCCC(=O)OCCCn2cc(C(=O)NC(=O)OCC)c(=O)[nH]c2=O)c(=O)[nH]c1=O,–,69.1 µM,> 100 µM,–,–,76 µM,> 100 µM,–,–,–,–,–,–,–
O=C(Nc1nccs1)c1cc(C2=CC=CC([N+](=O)[O-])C=C2)nc(=S)[nH]1 (centres undefined),> 100 µM,> 100 µM,> 100 µM,> 100 µM,> 100 µM,> 100 µM,> 100 µM,–,–,–,–,–,–,–
O=C(O)c1ccc([N+](=O)[O-])c2c(=O)c3ccccc3[nH]c12,> 100 µM,> 100 µM,> 100 µM,–,> 100 µM,> 100 µM,> 100 µM,–,–,–,–,–,–,–
O=C(N/N=C/c1cc(Br)cc(Br)c1[O-])c1ccccc1O.O=C(N/N=C/c1cc(Br)cc(Br)c1[O-])c1ccccc1O.[Mn+2],22.9 µM,17.2 µM,25.9 µM,–,22.3 µM,3.48 µM,22.3 µM,–,–,–,–,–,–,–
CC(=O)O[C@@H]1CC(C)C2CC2C2=C(C(O)OC2O)[C@@H]1C(C)CCC=C(C)C (some centres undefined),–,67.3 µM,56 µM,55.4 µM,> 100 µM,> 100 µM,35.5 µM,–,–,–,–,–,–,–
COC1=C(C(=O)OC(C)(C)C)[C@]2(C)C(C(=O)OC(C)(C)C)C(OC)=C(C(=O)OC(C)(C)C)[C@]2(C)C1C(=O)OC(C)(C)C (some centres undefined),> 100 µM,> 100 µM,> 100 µM,> 100 µM,> 100 µM,> 100 µM,> 100 µM,–,–,–,–,–,–,–
O[C@]12CCCC[C@H]1CCC2,> 100 µM,> 100 µM,> 100 µM,> 100 µM,> 100 µM,> 100 µM,> 100 µM,–,–,–,–,–,–,–
N#CC1(c2nc3ccccc3o2)C(=O)C(=O)N(c2ccc(Cl)c(Cl)c2)C(=O)C1=O,> 100 µM,–,> 100 µM,> 100 µM,> 100 µM,> 100 µM,> 100 µM,–,–,–,–,–,–,–
COC1CC(OS(=O)(=O)c2ccc(C)cc2)C(OS(=O)(=O)c2ccc(C)cc2)C(COS(=O)(=O)c2ccc(C)cc2)O1 (centres undefined),> 100 µM,18.6 µM,5.09 µM,15.6 µM,20.1 µM,17.8 µM,15.1 µM,–,–,–,–,–,–,–
O=C1NC2(O)c3ccccc3C(=O)C2(O)N1c1ccccc1 (centres undefined),> 100 µM,> 100 µM,–,> 100 µM,> 100 µM,> 100 µM,> 100 µM,–,–,–,–,–,–,–
CC1OC(OC2C(Oc3cc(O)c4c(=O)cc(-c5ccc(O)cc5)oc4c3)OC(CO)C(O)C2O)C(O)C(O)C1O (centres undefined),> 100 µM,> 100 µM,> 100 µM,> 100 µM,> 100 µM,> 100 µM,> 100 µM,–,–,–,–,–,–,–
Cc1c(C(=O)CC(=O)C(=O)Nc2cccc(C(F)(F)F)c2)[n+](=O)c2ccccc2n1[O-],21.7 µM,7.55 µM,57.6 µM,40.5 µM,18.5 µM,11.4 µM,17.8 µM,–,–,–,–,–,–,–
